The data set deals with patients receiving icosapent ethyl therapy. The data set is described as follows: Postmarket safety analysis of icosapent ethyl (VASCEPA). The format is in vivo, human. From the text: Over 320,000 patients are currently receiving icosapent ethyl (referenced interchangeably with AMR101 or VASCEPA®) therapy. With over 7 years of postmarket experience, there have been no signals necessitating a label change and no actions taken for safety reasons. Of the patients undergoing treatment with icosapent ethyl, a total of 1,204 unique adverse events (AEs) have been reported. However, there have been no signals of atrial fibrillation and flutter identified in the postmarket reports.

Each structure is given as a SMILES string.

Results on one compound are retold here after patent US12427134B2, “Methods of reducing the risk of cardiovascular events in a subject with atrial fibrillation and/or atrial flutter” (priority 2019, dated 2025).

Regarding `CC/C=C\C/C=C\C/C=C\C/C=C\C/C=C\CCCC(=O)OCC` [AMR101, eicosapentaenoic acid ethyl ester], where the note is “human, in vivo”, the “Individual serious AEs” value was 69; the “Serious and unexpected AE reports” value was 48; the “Unique adverse events (AEs) reported” value is on record as 1,204; the “Unique nonserious AEs” value was 1,156. Moreover, the “Reports with fatal outcomes” value (postmarket) is recorded as “Four”.
